Test in all cases: NCI-60 cell line screen, 48 h
Assay [1] has as its system A498.
Assay [2] has as its system A549.
Assay [3] concerns ACHN.
Assay [4] has as its system CAKI-1.
Assay [5] deals with EKVX.
Assay [6] deals with HCT-15.
Assay [7] has as its system Hs-578T.
The subject of assay [8] is MDA-N.
The subject of assay [9] is MOLT-4.
The test system of assay [10] is NCI-H23.
For assay [11], the system named is NCI-H460.
For assay [12], the system named is NCI/ADR-RES.
The subject of assay [13] is OVCAR-5.
For assay [14], the system named is PC-3.
The test system of assay [15] is SF-539.
Assay [16] has as its system SW-620.
The subject of assay [17] is U-251.
Assay [18] relates to UACC-257.
Assay [19] deals with UO-31.
For assay [20], the system named is HCC 2998.

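Briefly, cells in 96-well plates were exposed to five compound concentrations for 48 h, and endpoints were estimated by linear interpolation. The concentration for 50% growth inhibition is given as GI50.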 Calls of active or inactive are those of the source. Cut-off read from the data, not from the text of the source: active = GI50 up to about 1.1 µM and inactive = higher. Where only a bound is given, the exact number is not on record here.

Regarding `Cc1cc(O)cc2c1c(=O)c1ccccc1n2C`, the GI50 was 45.3 µM (inactive) in [1]; > 100 µM (inactive) in [2]; 89.7 µM (inactive) in assay [3]; > 100 µM (inactive) in assay [4]; > 100 µM (inactive) in assay [5]; more than 100 µM in assay [6]. Besides, the GI50 in assay [7] is 37.1 µM (inactive); in [8], > 100 µM (inactive); in assay [9], 55.1 µM (inactive); in assay [10], 38.9 µM (inactive); in assay [11], 5.33 µM (inactive); in assay [12], 68.1 µM (inactive). Further, the GI50 in [13] was > 100 µM (inactive); in [14], > 100 µM (inactive); in [15], 32.5 µM (inactive); in [16] it was > 100 µM (inactive); in [17] it was 54.1 µM (inactive); in [18] it was > 100 µM (inactive). In assay [19], the GI50 was > 100 µM (inactive).
For `COC(=O)/C=C1/SC(/C(=C(/[O-])OC)[n+]2ccc3ccccc3c2)=NC1=O`, the GI50 in [1] is > 100 µM (inactive); in assay [2] it was > 100 µM (inactive); in assay [3] it was > 100 µM (inactive); in [4], > 100 µM (inactive); in assay [5], > 100 µM (inactive); in assay [7] it was 25.4 µM (inactive). Moreover, the GI50 in assay [8], in assay [9], in assay [10], in assay [12], in assay [13] and in [14] was > 100 µM (inactive) throughout. The GI50 in assay [15] is 23 µM (inactive); in assay [16], > 100 µM (inactive); in assay [17], 67.5 µM (inactive); in [18], > 100 µM (inactive); in assay [19], > 100 µM (inactive).
Turning to `COc1ccc(N2C(=O)C3c4[nH]c5cc(Cl)ccc5c4C4CCC(C(C)(C)C)CC4C3C2=O)cc1` (stereo unspecified), the GI50 in [2] is 60.7 µM (inactive); in assay [3], 61.1 µM (inactive); in assay [5], 59.2 µM (inactive); in assay [20], 44 µM (inactive); in [6], 87.5 µM; in assay [7] it was 26.2 µM (inactive). Moreover, the GI50 was > 100 µM (inactive) in assay [8]; 15.6 µM (inactive) in assay [9]; 93.3 µM (inactive) in assay [10]; 35.9 µM (inactive) in assay [11]; > 100 µM (inactive) in assay [12]; 29.2 µM (inactive) in [14]. For the same compound, the GI50 in assay [15] was 96.8 µM (inactive); in assay [16], 69.8 µM (inactive); in [17], 95.1 µM (inactive); in assay [18] it was > 100 µM (inactive); in assay [19] it was 70.5 µM (inactive).
In the case of `Cc1cc(C)c(-n2c(C)c(C)c(C#N)c2N)c(C)c1`, the GI50 was 29.3 µM (inactive) in assay [1]; 36.5 µM (inactive) in assay [2]; 31.3 µM (inactive) in assay [3]; 43.3 µM (inactive) in assay [4]; 27.5 µM (inactive) in assay [5]; 27.9 µM in assay [6]. In addition, the GI50 in assay [7] was 43.8 µM (inactive); in [8], 19.2 µM (inactive); in [9], 15.6 µM (inactive); in assay [10], 39 µM (inactive); in assay [11] it was 22.4 µM (inactive); in [12], 32.3 µM (inactive). The GI50 was > 100 µM (inactive) in assay [13]; 25.8 µM (inactive) in [14]; 23.4 µM (inactive) in [15]; 26.5 µM (inactive) in assay [16]; 17.4 µM (inactive) in [17]; 18.1 µM (inactive) in assay [18]. Also, in assay [19], the GI50 was 83.2 µM (inactive).
For the compound `COC(=O)C1=Nc2c(C)nn(-c3ccccc3)c2N=C(c2ccc([N+](=O)[O-])cc2)C1`, the GI50 in assay [2] is > 10 µM (inactive); in [3] it was > 10 µM (inactive); in [4] it was > 10 µM (inactive); in [20] it was > 10 µM (inactive); in assay [6] it was more than 10 µM; in [7], > 10 µM (inactive). For the same compound, the GI50 was > 10 µM (inactive) in assay [8]; > 10 µM (inactive) in [9]; > 10 µM (inactive) in assay [10]; > 10 µM (inactive) in assay [12]; 5.98 µM (inactive) in assay [13]; > 10 µM (inactive) in assay [14]. Further, the GI50 in [15], in assay [16], in assay [17] and in assay [18] was > 10 µM (inactive) each time.
Regarding `Cc1c(/N=N/c2ccc(Cl)cc2)c(-c2ccccc2)n(C2OC(CO)C(O)C(O)C2O)c(=S)c1C#N` (stereo unspecified), the GI50 in assay [1] was 7.87 µM (inactive); in [2], 17.3 µM (inactive); in assay [3], 16 µM (inactive); in assay [4] it was 18.1 µM (inactive); in [6], 17.1 µM; in assay [7], 21.5 µM (inactive). Further, the GI50 was 18.2 µM (inactive) in [8]; 8.04 µM (inactive) in assay [9]; 10.7 µM (inactive) in [10]; 18.8 µM (inactive) in [11]; 13.6 µM (inactive) in assay [12]; 19.2 µM (inactive) in assay [13]. Moreover, the GI50 is 10.6 µM (inactive) in [14]; 20.7 µM (inactive) in assay [15]; 17.6 µM (inactive) in assay [16]; 12.7 µM (inactive) in assay [17]; 22.1 µM (inactive) in assay [18]; 19.8 µM (inactive) in assay [19].
Turning to `CCc1n[nH]c(=O)[nH]1`, the GI50 in assay [2] is > 100 µM (inactive); in [3] it was > 100 µM (inactive); in assay [4], > 100 µM (inactive); in assay [5] it was > 100 µM (inactive); in assay [20] it was > 100 µM (inactive); in assay [6], more than 100 µM. Moreover, the GI50 in assay [7], in [8], in [9], in assay [10], in assay [11] and in assay [12] was > 100 µM (inactive) throughout. For the same compound, the GI50 in assay [13], in assay [14], in [15], in assay [18] and in assay [19] was > 100 µM (inactive) each time.
Regarding `NC(CCP(=O)(O)O)C(=O)O` (stereo unspecified), the GI50 in [1] was > 100 µM (inactive); in [2], > 100 µM (inactive); in assay [3], > 100 µM (inactive); in [4] it was > 100 µM (inactive); in [5] it was > 100 µM (inactive); in [6], more than 100 µM. Further, the GI50 in assay [7], in [8], in [9], in assay [10], in assay [11] and in assay [12] was > 100 µM (inactive) throughout. Also, the GI50 in [13], in assay [14], in assay [16], in assay [17], in assay [18] and in assay [19] was > 100 µM (inactive) throughout.

Values taken from ChEMBL document CHEMBL1201862, “PubChem BioAssay data set” (2004).
